Where two headings read alike, the source gives them in different places.

These results are taken from patent US12275957B2, “Next generation designer liver organoids and their methods of preparation and use” (ARIZONA BOARD OF REGENTS ON BEHALF OF ARIZONA STATE …, priority 2018, dated 2025).

For data set [1], the system named is FXR signaling (CYP7A1, NROB2/SHP, FGF19 expression) in DesLO. The experiment in a line: qRT-PCR of bile acid synthesis / FXR pathway genes in DesLO after addition of FXR agonist, bile acid or FGF19.
Method: (§1) To further delineate the mechanism of FXR-mediated CYP7A1 repression, we tested FXR, NROB2, and FGF19 expression following GW4064 treatment.
(§2) Tissues were harvested and lysed by adding 500 μL Trizol (Life Technologies) directly to the tissue culture well and freezing at −80C. For extraction, lysate was thawed on ice, 100 μL chloroform was added, vortexed for 30 seconds, and centrifuged at 12,000 g for 15 minutes at 4° C. After centrifugation the aqueous phase was transferred to a Qiagen gDNA eliminator column and centrifuged at 10,000 g for 1 minute at 4° C. The flow-through was mixed with an equal volume of 70% EtOH and transferred to an RNEasy mini spin column. The manufacturer protocol for the RNEasy Plus Mini Kit (QIAGEN) was followed for the rest of the procedure. cDNA was synthesized using the high Capacity cDNA reverse transcription (Applied Biosystems). qRT-PCR was performed using the SYBR Green intercalating dye (ThermoFisher Scientific) and previously validated primers (IDT). Expression was normalized to 18S ribosomal RNA and relative gene expression was calculated using 2^−ΔΔCT method.
In data set [2] the test system is FXR signaling (CYP7A1, NROB2/SHP, FGF19 expression) in FeLO. In words: qRT-PCR of bile acid synthesis / FXR pathway genes in FeLO after addition of FXR agonist. The following applies: FeLO cultures. In general terms: Quantitative PCR measures a nucleic acid by following its amplification.
Method: as §1, §2
The subject of data set [3] is bile acid synthesis in DesLO. In words: Total bile acid assay in media. The format is cell-based, human. The following applies: addition of GW4064. On the procedure:
The cell supernatant was assessed at multiple dilutions to optimize detection, and the assay was performed according to the manufacturer's protocol.

Data set [4] has as its system FXR signaling (CYP7A1, NROB2/SHP, FGF19 expression) in DesLO.
Method: as §1, §2
The subject of data set [5] is Desmin positive stellate-like cells in DesLO. In words: Fibrogenesis model: Desmin immunofluorescence and qRT-PCR. It is filed as cell-based, human. The following applies: for Desmin positive population (immunofluorescence staining): 5 ng/mL TGFB1 for 3 days. From the text: Multicellular DesLO as a Model for Fibrogenesis: Hepatic fibrosis is a maladaptive multicellular response of liver that is characterized by an excessive accumulation of extracellular matrix. It is a wound healing process, largely mediated by hepatic stellate cells (liver pericytes) which proliferate, deposit collagen, and generate scar tissue in response to injury. Since DesLOs contain a population of stellate-like cells we assessed whether this cell population respond to classical fibrotic stimuli. We induced fibrogenesis via transforming growth factor beta-1 (TGFβ1) or a combination of TGFβ1 and fetal bovine serum (FBS) supplementation to the culture medium. […] It is known that tissue culture treated polystyrene (TCTP) can increase cell stress and stellate cell proliferation.
Cells were grown on Matrigel-coated 8 mm or 12 mm diameter circular glass coverslips and fixed for 20 min in 4% paraformaldehyde (Electron Microscopy Sciences) at room temperature. Coverslips were then washed three times in 200 μl PBS droplets on Parafilm (Pechiney Plastic Packaging Company) followed by 15 min permeabilization in 100 μl of 0.2% Triton X-100 in PBS. Subsequently the coverslips were washed three times in 200 μl in washing buffer (0.05% Tween-20 in PBS) for 5 min and blocked for 20 min in 200 μl wash buffer plus 5% normal donkey serum (Jackson ImmunoResearch Laboratories). The incubation with the primary antibodies was performed for 1 h at room temperature in 30 μl of 5% normal donkey serum in PBS followed by three washes in 200 μl in PBS for 5 min each. The incubation with the secondary antibodies was performed for 1 h at room temperature in 30 μl of 5% normal donkey serum in PBS followed by three washes in 200 μl in PBS for 5 min. Finally, the coverslips were mounted on microscopy glass slides using ProLong Diamond Antifade (Life Technologies, USA), cured overnight at room temperature and then sealed with nail polish. Antibody list and concentrations are included in the supplement.

As to `CC(C)c1onc(-c2c(Cl)cccc2Cl)c1COc1ccc(/C=C/c2cccc(C(=O)O)c2)c(Cl)c1` [GW4064], in data set [1] (GW4064 treatment), the “upregulation of FGF19” value is reported as over 40 folds and the “upregulation of SHP (NROB2)” value is over 40 folds. Further, the “CYP7A1 repression (real-time qPCR)” value in data set [1] (addition of GW4064) is given as 4 fold. For the same compound, in data set [2] (GW4064 treatment), the “upregulation of SHP and FGF19 / CYP7A1 repression” value is “could not be captured”. For the same compound, in data set [2] (addition of GW4064), the “CYP7A1 repression (real-time qPCR)” value is reported as “not repressed”. Further, the “total bile acid in media” value in data set [3] is reported as “repression of bile acid synthesis”.
Turning to fibroblast growth factor 19 [FGF19], the “CYP7A1 expression change (qRT-PCR)” value in data set [1] (addition to the media) is “expected downregulation of CYP7A1”.
Turning to `C[C@H](CCC(=O)O)[C@H]1CC[C@H]2[C@@H]3[C@H](O)C[C@@H]4C[C@H](O)CC[C@]4(C)[C@H]3CC[C@]12C` [CDCA, chenodeoxycholic acid], the “CYP7A1 expression change (qRT-PCR)” value in data set [4] is “expected downregulation of CYP7A1”.
“transforming growth factor beta-1 [TGFβ1]”: in data set [5] (DesLO, versus vehicle control), the “Desmin positive population (immunofluorescence staining)” value was “visibly expanded” and the “Desmin levels (qRT-PCR)” value is “increase”. For the same compound, the “Desmin positive population (immunofluorescence staining)” value in data set [5] (DesLO, versus vehicle control, listed as TGFB1) is listed as “increase in expression”. For the same compound, the “response to TGFβ1 treatment (Desmin qRT-PCR)” value in data set [5] (both FeLO and DesLO) was “responded modestly”.
